Measurements published in ChEMBL document CHEMBL1681737, “Isatin 1,2,3-triazoles as potent inhibitors against caspase-3” (Bioorg Med Chem Lett, 2011).

Target: T1, Caspase-3 (Homo sapiens, UniProt P42574)
T1 sequence (P42574 whole entry): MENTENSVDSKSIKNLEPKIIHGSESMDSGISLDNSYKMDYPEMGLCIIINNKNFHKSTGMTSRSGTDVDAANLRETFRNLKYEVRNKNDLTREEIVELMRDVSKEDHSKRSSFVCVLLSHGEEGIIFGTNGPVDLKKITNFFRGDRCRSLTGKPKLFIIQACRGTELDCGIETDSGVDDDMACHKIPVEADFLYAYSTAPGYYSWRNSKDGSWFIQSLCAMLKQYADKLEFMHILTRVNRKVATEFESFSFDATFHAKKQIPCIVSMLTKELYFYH
Assay: Inhibition of caspase 3 using Ac-DEVD-AFC fluorogenic substrate

Row | IC50 | Structure (SMILES)
1 | 16.7 nM | O=C1C(=O)N(Cc2cn(CCF)nn2)c2ccc(S(=O)(=O)N3CCC[C@H]3COc3ccccc3)cc21
2 | 0.5 nM | O=C1C(=O)N(Cc2cn(CCF)nn2)c2ccc(S(=O)(=O)N3CCC[C@H]3COc3ccc(F)cc3F)cc21
3 | 1000 nM | O=C1Nc2ccc([N+](=O)[O-])cc2C1=O [5-NITROISATIN]
